Results: patent publication US8455518B2, “Method of treating skin with microRNA modulators” (Avon Products, Inc., priority 2010, dated 2013)

Legend:
Assay type in all cases: cell-based
miR-29a = experiment: Inhibition of miR-29a by specific compounds in human dermal fibroblasts, qRT-PCR; details: 0.0005% compound, 48 hours; for inhibition of miR-29a relative to vehicle treated cells (in words): p<0.05; for miR-29a (%): serum-free, relative to vehicle treated cells
Protocol: (§1) The expression of miR-29a and miR29b in young versus old skin fibroblasts was examined by qRT-PCR.
(§2) Human dermal fibroblasts were grown in the absence of serum overnight, followed by treatment with 0.0005% of test compounds in the absence of serum for 48 hours. Cells were analyzed for expression levels of miR-29a and miR-29b by qRT-PCR as described in Examples 1 and 2. […] All values are statistically significant at p<0.05.

miR-29b = experiment: Inhibition of miR-29b by specific compounds in human dermal fibroblasts, qRT-PCR; details: 0.0005% compound, 48 hours; for inhibition of miR-29b relative to vehicle treated cells (in words): p<0.05; for miR-29b (%): serum-free, relative to vehicle treated cells
Protocol: as §1, §2

collagen = experiment: Collagen protein levels by ELISA in compound-treated human dermal fibroblasts; details: 0.0005% compound, 48 hours; for collagen protein levels as measured by ELISA (in words): p<0.05; for Collagen (%): serum-free, collagen protein by ELISA

| Compound | inhibition of miR-29a relative to vehicle treated cells (in words) (miR-29a) | miR-29a (%) (miR-29a) | inhibition of miR-29b relative to vehicle treated cells (in words) (miR-29b) | miR-29b (%) (miR-29b) | collagen protein levels as measured by ELISA (in words) (collagen) | Collagen (%) (collagen) |
| --- | --- | --- | --- | --- | --- | --- |
| CC(C)CN(Cc1ccc(OS(C)(=O)=O)cc1)S(=O)(=O)c1ccccc1 [Compound 1, N-(2-methylpropyl)-N-[[4-[(methylsulfonyl)oxy]phenyl]methyl]-benzenesulfonamide] | significant inhibition | −61.57 | significant inhibition | −85.00 | increased collagen protein levels | 102 |
| CCOCCCNC(=O)c1cc(NC(=O)/C=C/c2ccccc2)ccc1N1CCC(Cc2ccccc2)CC1 [Compound 2, 2-(4-benzylpiperidin-1-yl)-N-(3-ethoxypropyl)-5-[(2E)-3-phenylprop-2-enamido]-benzamide] | significant inhibition | −33.67 | significant inhibition | −61.53 | increased collagen protein levels | 30 |
